In patent publication US9655912B2, “Reduction of gastrointestinal tract colonisation by campylobacter” (priority 2012, dated 2017):

B1: MOMP(+): major outer membrane protein purified under native conditions from C. jejuni strain NCTC11168 (protein)
chain: TPLEEAIKDVDVSGVLRYRYDTGNFDKNFVNNSNLNNSKQDHKYRAQVNFSAAIADNFKAFVQFDYNAADGGYGANGIKNDQKGLFVRQLYLTYTNEDVATSVIAGKQQLNLIWTDNAIDGLVGTGVKVVNNSIDGLTLAAFAVDSFMAAEQGADLLEHSNISTTSNQAPFKVDSVGNLYGAAAVGSYDLAGGQFNPQLWLAYWDQVAFFYAVDAAYSTTIFDGINWTLEGAYLGNSLDSELDDKTHANGNLFALKGSIEVNGWDASLGGLYYGDKEKASTVVIEDQGNLGSLLAGEEIFYTTGSRLNGDTGRNIFGYVTGGYTFNETVRVGADFVYGGTKTEAANHLGGGKKLEAVARVDYKYSPKLNFSAFYSYVNLDQGVNTNESADHSTVRLQALYKF

Legend:
C. jejuni = assay: ELISA: inhibition of C. jejuni adherence to BgAgs (Core-I, Core-II, H-I, H-II, Leb, Ley, Lex) by Ferric Quinate; format: binding, Campylobacter jejuni; conditions: for Inhibition of C. jejuni binding to BgAgs: 34 μM Fe(QA)3, pre-incubation and post-treatment, ELISA
Experimental: The inhibitory potential of Ferric Quinate Fe(QA)3 on adherence of C. jejuni was analyzed by ELISA using BgAgs (Core-I, Core-II, H-I, H-II, Leb, Ley and Lex). C. jejuni was pre-incubated with 34 μM Fe(QA)3 and specific inhibition was also analyzed by post-treatment of C. jejuni with Fe(QA)3 which bound to BgAgs at the time.

[1] = tested on: C. jejuni NCTC11168 strain; assay: Growth of C. jejuni in culture medium supplemented with Fe(QA)3; format: cell-based, Campylobacter jejuni; conditions: 34 and 340 μM in culture medium
Source text: To further clarify the growth-effect properties of Fe(QA)3, we investigated the effect of adding Fe(QA)3 to the culture medium.

C. jejuni NCTC11168-O = assay: Chicken caecal colonisation after oral challenge, Ferric Quinate as additive to water; format: in vivo; conditions: 0.34 mM in water, 6-weeks old birds, 3 and 7 days post-challenge
Experimental: These inhibitory properties against C. jejuni adherence to BgAgs were analyzed in vivo. Ferric Quinate was used as an additive to water (0.034-0.34 mM) and as an inhibitor of C. jejuni NCTC11168 strain adherence to, and thus colonization, in the chicken intestinal tract. 6-weeks old birds (n=10 per group) were challenged with 3×10^3-5 cfu wild-type strain NCTC11168-O by oral gavage. Caecal colonisation levels were determined in birds from each group at 3 and 7 days post-challenge.

[2] = tested on: C. jejuni strain NCTC11168; assay: Inhibition ELISA of binding of strain NCTC11168 to H-II glycoconjugate; design: species or system Campylobacter jejuni; conditions: p<0.001, FIG. 2A
Experimental: Purified MOMP from NCTC11168 (MOMP(+)), and pre-incubation of NCTC11168 bacterial cells with H-II glycoconjugate (H-II). […] B) ELISA plate was coated with a selection of BgAgs. Specific binding was calculated by subtracting the BSA (negative control) values from the BgAg absorbance at 405 nm. Strain NCTC11168 and Cj-266 (high binder strain, S3—Table 1), and corresponding ΔflaA mutants, have been examined for binding to Le^b, H-II, H-I, Le^x and Le^a. t-test confirmed the reduction in binding seen with mutants are significant (Le^b; p=2.5E-05, H-II; p=0.012, H-I; p=0.001, Le^x; p=0.029 and Le^a; p=0.000) in strain NCTC11168. However, Cj-266ΔflaA mutation had no effect on binding, which indicates the binding capacity was compensated by MOMP protein. Each group of bars from left to right: NCTC11168, 11168-ΔflaA, Cj-266, Cj-266ΔflaA. C) A double mutant (DM) of ΔflaA and single substitution of glycosylation site in MOMP protein (Thr^268 was substituted with Gly) was constructed in both strain NCTC11168 and Cj-266, and the binding to Le^b H-I and H-II was examined. […] Each group of bars from left to right: Leb, H-II, H-1.
Deletion mutant of ΔflaA in strains NCTC11168 and Cj-266 (a clinical isolate, S3—Table) were constructed.

Molecule	Inhibition of C. jejuni binding to BgAgs (C. jejuni)	Inhibition of microbial adherence, bacterial culture (MH) containing Fe(QA)3 (C. jejuni; bacteria cultured on MH containing Fe(QA)3)	Resistance concerning the binding abilities after sequential passages (C. jejuni; sequential passages (P) of bacteria to new plate containing Fe(QA)3)	Effect on growth of C. jejuni NCTC11168 [1]	Reduction of adhesion of C. jejuni to the intestinal mucosa (caecal colonisation) (C. jejuni NCTC11168-O)	Bacterial binding to H-II antigen [2]	Bacterial binding to H-II antigen ([2]; listed as purified MOMP)
Ferric quinate [Fe(QA)3]	90%	reproducible inhibition	didn't cause any resistance	did not affect the growth	2-3 Log		
O=C(O)[C@]1(O)C[C@@H](O)[C@@H](O)[C@H](O)C1 [Quinic Acid, D-(−)-quinic acid, reference compound]	no inhibition						
B1						significantly reduced	significantly inhibited
